Results published in PubChem BioAssay (NCI).
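Dose response: 5 concentrations. Exposure: 48 h. Format: 96-well plates. Endpoint: linear interpolation; highest concentration if not reached. GI50 is the concentration that inhibits growth by half. Definition used: TGI = concentration required for complete inhibition of growth.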 Peptide text beside a SMILES is read from it.

How the values were obtained:
Assay in all cases: NCI anticancer screen, dose series, 48 h
CCRF-CEM leukemia = tested on: CCRF-CEM leukemia
HS 578T breast = tested on: HS 578T breast
SK-MEL-2 melanoma = tested on: SK-MEL-2 melanoma
SN12C renal = tested on: SN12C renal
A498 renal = tested on: A498 renal
DU-145 prostate = tested on: DU-145 prostate
EKVX NSCLC = tested on: EKVX NSCLC
HCC-2998 colon = tested on: HCC-2998 colon
HCT-116 colon = tested on: HCT-116 colon
HL-60(TB) leukemia = tested on: HL-60(TB) leukemia
HT29 colon = tested on: HT29 colon
IGROV1 ovarian = tested on: IGROV1 ovarian
K-562 leukemia = tested on: K-562 leukemia
KM12 colon = tested on: KM12 colon
MALME-3M melanoma = tested on: MALME-3M melanoma
MCF7 breast = tested on: MCF7 breast
MDA-MB-231 breast = tested on: MDA-MB-231 breast
MDA-MB-435 = tested on: MDA-MB-435
MOLT-4 leukemia = tested on: MOLT-4 leukemia
NCI-H23 lung = tested on: NCI-H23 lung
NCI-H522 lung = tested on: NCI-H522 lung
OVCAR-4 ovarian = tested on: OVCAR-4 ovarian
OVCAR-8 ovarian = tested on: OVCAR-8 ovarian
SF-268 CNS = tested on: SF-268 CNS
SF-295 CNS = tested on: SF-295 CNS
SK-MEL-5 melanoma = tested on: SK-MEL-5 melanoma
SNB-19 CNS = tested on: SNB-19 CNS
SNB-75 CNS = tested on: SNB-75 CNS
SR leukemia = tested on: SR leukemia
SW-620 colon = tested on: SW-620 colon
TK-10 renal = tested on: TK-10 renal
UACC-257 melanoma = tested on: UACC-257 melanoma
UACC-62 melanoma = tested on: UACC-62 melanoma
786-0 renal = tested on: 786-0 renal
A549 NSCLC = tested on: A549 NSCLC
ACHN renal = tested on: ACHN renal
BT-549 breast = tested on: BT-549 breast
CAKI-1 renal = tested on: CAKI-1 renal
COLO 205 colon = tested on: COLO 205 colon
HCT-15 colon = tested on: HCT-15 colon
HOP-62 NSCLC = tested on: HOP-62 NSCLC
HOP-92 NSCLC = tested on: HOP-92 NSCLC
LOX IMVI melanoma = tested on: LOX IMVI melanoma
M14 melanoma = tested on: M14 melanoma
NCI-H226 lung = tested on: NCI-H226 lung
NCI-H460 lung = tested on: NCI-H460 lung
NCI/ADR-RES ovarian = tested on: NCI/ADR-RES ovarian
OVCAR-3 ovarian = tested on: OVCAR-3 ovarian
OVCAR-5 ovarian = tested on: OVCAR-5 ovarian
PC-3 prostate = tested on: PC-3 prostate
RPMI-8226 leukemia = tested on: RPMI-8226 leukemia
RXF 393 renal = tested on: RXF 393 renal
SF-539 CNS = tested on: SF-539 CNS
SK-MEL-28 melanoma = tested on: SK-MEL-28 melanoma
T-47D breast = tested on: T-47D breast
U251 CNS = tested on: U251 CNS
UO-31 renal = tested on: UO-31 renal

CC(=O)NC(C(=O)NC(C)C(=O)N1CCCC1C(=O)O)C(C)C (stereo not drawn) (Ac-Val-Ala-Pro-OH; configuration not given here)
GI50 (CCRF-CEM leukemia): 89.9 µg/mL | GI50 (HS 578T breast): 65.6 µg/mL | GI50 (SK-MEL-2 melanoma): 83.8 µg/mL | GI50 (SN12C renal): 46.6 µg/mL

CC/C(=C\c1ccc(Cl)c(Cl)c1)[N+](=O)[O-]
TGI (A498 renal): 24100 nM | TGI (DU-145 prostate): 5390 nM | TGI (EKVX NSCLC): 7880 nM | TGI (HCC-2998 colon): 3590 nM | TGI (HCT-116 colon): > 100000 nM | TGI (HL-60(TB) leukemia): 5670 nM | TGI (HS 578T breast): > 100000 nM | TGI (HT29 colon): > 100000 nM | TGI (IGROV1 ovarian): 3310 nM | TGI (K-562 leukemia): 47400 nM | TGI (KM12 colon): 10400 nM | TGI (MALME-3M melanoma): 4110 nM | TGI (MCF7 breast): 3480 nM | TGI (MDA-MB-231 breast): 5400 nM | TGI (MDA-MB-435): 3100 nM | TGI (MOLT-4 leukemia): 2010 nM | TGI (NCI-H23 lung): 5210 nM | TGI (NCI-H522 lung): 3490 nM | TGI (OVCAR-4 ovarian): 7570 nM | TGI (OVCAR-8 ovarian): 3400 nM | TGI (SF-268 CNS): 4570 nM | TGI (SF-295 CNS): 5360 nM | TGI (SK-MEL-2 melanoma): 4850 nM | TGI (SK-MEL-5 melanoma): 3920 nM | TGI (SNB-19 CNS): 5700 nM | TGI (SNB-75 CNS): > 100000 nM | TGI (SR leukemia): 3610 nM | TGI (SW-620 colon): > 100000 nM | TGI (TK-10 renal): 4040 nM | TGI (UACC-257 melanoma): 3580 nM | TGI (UACC-62 melanoma): 3890 nM

CCc1c2c(nc3ccc(OCc4ccc(B5OC(C)(C)C(C)(C)O5)cc4)cc13)-c1cc3c(c(=O)n1C2)COC(=O)[C@]3(O)CC
GI50 (786-0 renal): 20 nM | TGI (786-0 renal): 69.1 nM | GI50 (A498 renal): 40.6 nM | TGI (A498 renal): 376 nM | GI50 (A549 NSCLC): 60 nM | TGI (A549 NSCLC): > 100000 nM | GI50 (ACHN renal): 27.8 nM | TGI (ACHN renal): 2070 nM | GI50 (BT-549 breast): 75.7 nM | TGI (BT-549 breast): > 100000 nM | GI50 (CAKI-1 renal): 16.2 nM | TGI (CAKI-1 renal): 1220 nM | GI50 (CCRF-CEM leukemia): < 10 nM | TGI (CCRF-CEM leukemia): > 100000 nM | GI50 (COLO 205 colon): 126 nM | TGI (COLO 205 colon): > 100000 nM | GI50 (DU-145 prostate): 22.3 nM | TGI (DU-145 prostate): > 49800 nM | GI50 (EKVX NSCLC): 431 nM | TGI (EKVX NSCLC): > 100000 nM | GI50 (HCC-2998 colon): 185 nM | TGI (HCC-2998 colon): > 100000 nM | GI50 (HCT-116 colon): 16.9 nM | TGI (HCT-116 colon): > 100000 nM | GI50 (HCT-15 colon): 331 nM | TGI (HCT-15 colon): > 100000 nM | GI50 (HL-60(TB) leukemia): 29.1 nM | GI50 (HOP-62 NSCLC): < 10 nM | GI50 (HOP-92 NSCLC): 37.8 nM | TGI (HOP-92 NSCLC): 963 nM | GI50 (HS 578T breast): 1110 nM | TGI (HS 578T breast): > 100000 nM | GI50 (HT29 colon): 115 nM | TGI (HT29 colon): > 100000 nM | GI50 (IGROV1 ovarian): 134 nM | TGI (IGROV1 ovarian): > 100000 nM | GI50 (K-562 leukemia): 56.2 nM | TGI (K-562 leukemia): > 100000 nM | GI50 (KM12 colon): 137 nM | TGI (KM12 colon): 1620 nM | GI50 (LOX IMVI melanoma): < 10 nM | TGI (LOX IMVI melanoma): 355 nM | GI50 (M14 melanoma): 14.1 nM | GI50 (MALME-3M melanoma): 134 nM | TGI (MALME-3M melanoma): 3070 nM | GI50 (MDA-MB-231 breast): 1100 nM | TGI (MDA-MB-231 breast): > 100000 nM | GI50 (MDA-MB-435): 101 nM | TGI (MDA-MB-435): > 100000 nM | GI50 (MOLT-4 leukemia): < 10 nM | TGI (MOLT-4 leukemia): > 100000 nM | GI50 (NCI-H226 lung): 21.4 nM | TGI (NCI-H226 lung): 454 nM | GI50 (NCI-H23 lung): 24.8 nM | TGI (NCI-H23 lung): 219 nM | GI50 (NCI-H460 lung): 12.5 nM | TGI (NCI-H460 lung): 1240 nM | GI50 (NCI-H522 lung): 20.4 nM | TGI (NCI-H522 lung): > 100000 nM | GI50 (NCI/ADR-RES ovarian): 62.2 nM | TGI (NCI/ADR-RES ovarian): > 100000 nM | GI50 (OVCAR-3 ovarian): 215 nM | TGI (OVCAR-3 ovarian): > 100000 nM | GI50 (OVCAR-4 ovarian): 192 nM | TGI (OVCAR-4 ovarian): > 100000 nM | GI50 (OVCAR-5 ovarian): 215 nM | TGI (OVCAR-5 ovarian): > 100000 nM | GI50 (OVCAR-8 ovarian): 29.6 nM | TGI (OVCAR-8 ovarian): > 100000 nM | GI50 (PC-3 prostate): 146 nM | TGI (PC-3 prostate): > 100000 nM | GI50 (RPMI-8226 leukemia): 312 nM | TGI (RPMI-8226 leukemia): > 100000 nM | GI50 (RXF 393 renal): 27 nM | TGI (RXF 393 renal): 185 nM | GI50 (SF-268 CNS): < 10 nM | TGI (SF-268 CNS): > 100000 nM | GI50 (SF-539 CNS): < 10.9 nM | TGI (SF-539 CNS): 131 nM | GI50 (SK-MEL-2 melanoma): 825 nM | TGI (SK-MEL-2 melanoma): > 24600 nM | GI50 (SK-MEL-28 melanoma): 604 nM | TGI (SK-MEL-28 melanoma): > 100000 nM | GI50 (SK-MEL-5 melanoma): 37.2 nM | TGI (SK-MEL-5 melanoma): 338 nM | GI50 (SN12C renal): < 10 nM | TGI (SN12C renal): > 100000 nM | GI50 (SNB-19 CNS): < 10 nM | TGI (SNB-19 CNS): > 100000 nM | GI50 (SNB-75 CNS): 18.3 nM | TGI (SNB-75 CNS): 296 nM | GI50 (SR leukemia): < 10 nM | TGI (SR leukemia): > 100000 nM | GI50 (SW-620 colon): 25.8 nM | TGI (SW-620 colon): > 100000 nM | GI50 (T-47D breast): < 10 nM | TGI (T-47D breast): > 100000 nM | GI50 (TK-10 renal): 1830 nM | TGI (TK-10 renal): > 100000 nM | GI50 (U251 CNS): < 10 nM | GI50 (UACC-257 melanoma): 47.7 nM | TGI (UACC-257 melanoma): 1260 nM | GI50 (UACC-62 melanoma): < 10 nM | TGI (UACC-62 melanoma): 186 nM | GI50 (UO-31 renal): 32.6 nM | TGI (UO-31 renal): 1020 nM
